Experimental findings from patent publication US6309842A, “Use of modified tethers in screening compound libraries” (Glaxo Wellcome Inc., priority 1997, dated 2001) are described below.

The target of data set [1] is T1, yeast α-factor receptor (STE2) (Saccharomyces cerevisiae, UniProt D6VTK4).
T1 construct: expressed in transfected cells; host or cells: yeast strain ARY84 (Δste2::ura3, plasmid pRS416(URA3)-STE2)
T1 sequence (D6VTK4 1-431): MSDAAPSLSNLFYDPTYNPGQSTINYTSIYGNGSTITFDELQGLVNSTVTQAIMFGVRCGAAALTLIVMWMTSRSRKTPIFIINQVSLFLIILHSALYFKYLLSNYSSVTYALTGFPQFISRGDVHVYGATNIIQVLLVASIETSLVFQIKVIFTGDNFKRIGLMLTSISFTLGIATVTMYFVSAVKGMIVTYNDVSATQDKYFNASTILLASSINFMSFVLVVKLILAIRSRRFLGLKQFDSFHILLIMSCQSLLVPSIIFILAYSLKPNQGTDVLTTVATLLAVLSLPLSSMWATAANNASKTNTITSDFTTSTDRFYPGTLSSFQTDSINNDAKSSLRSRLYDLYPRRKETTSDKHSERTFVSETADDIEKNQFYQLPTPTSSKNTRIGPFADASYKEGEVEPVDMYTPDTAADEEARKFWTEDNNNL
The data set is described as follows: ELISA of agonist-induced well marking by ARY84 (dephosphorylation of AF12402 tether, 3E7 detection). The conditions noted are these: for Well-marking activity: selective conditions. It counts as cell-based. On the procedure: A plastic 96-well immunoassay plate (Beckman #373660) was coated with 0.41 μM streptavidin for 1 hour at 37° C. After washing, it was blocked with 1×PBS, 1% bovine serum albumin (BSA) for 1 hr at 37° C. After washing, 100 nM of AF12402 ((H)-(Phospho-Y)[…](biotin)(OH)) (SEQ ID NO:7) in 1×PBS, 0.1% BSA was incubated on the plate overnight at 4° C. The wells were washed with 1×PBS and a yeast culture containing ARY84 at a density of OD600 =0.1 in defined medium was added to the plate. The following conditions were tested: +growth selection, no α-factor; +growth selection, +500 nM α-factor.
After addition of yeast the culture was either removed immediately (t=0; wells were filled with 1×PBS/ 0.1% BSA) or after 24 hr incubation at 30° C. At the end of the incubation, the wells were washed and developed using a standard protocol with 1 nM 3E7 antibody for the primary development (4° C., 1 hr) and 1/1000 diluted alkaline phosphatase conjugated goat anti-mouse antibody (Gibco) at 4° C. for 1 hr. Binding of antibodies was quantitated using a standard colorimetric alkaline-phosphatase reaction (see Cull et al., PNAS 89, 1865-1869 (1992)).
On the technique in general: An ELISA detects its analyte on a solid surface through an enzyme-linked reagent.

Data set [2] concerns the target T1, yeast α-factor receptor (STE2). As to the kind of experiment: Secretion of acid phosphatase into the medium by yeast ARY84 (pNPP assay). The class given is cell-based. Particulars: for % of total acid-phosphatase activity in medium: 24 Hrs; for Induction ratio: growth selection, 500 nM vs no alpha-factor. From the text: The strain used in these experiments is designated ARY84 (Mata prc1-407 prb1-1122 pep4-3 leu2, 3-112 ura3-52 trp1 far1::ura3 Δhis3::APT2 FUS1::HIS3 Δste2::ura3 Δsst2::ura3 Δpho5::TRP1 LEU2::pCMGy64(::FUS1-PHO3) [pRS416(URA3)-STE2]. This yeast is engineered to grow in the presence of an agonist, and also to secrete acid phosphatase as a result of agonist stimulation. The yeast strain used in these experiments bears a mutation in the SST2 gene to enhance sensitivity to agonist, an inactivating mutation in the FAR1 gene to allow growth in the presence of agonist and an inactivating mutation in the HIS3 gene. The FUS1 gene promoter stimulates transcription of two reporter genes. The first reporter gene is HIS3. 3-aminotriazole can be used to titrate out the background activity of the HIS3 gene product resulting in growth arrest due to histidine starvation. Stimulation of HIS3 transcription from the FUS1 promoter overcomes the inhibitory effect of 3-aminotriazole, allowing growth of agonist-stimulated yeast cells. The second reporter gene is PHO3 (which was obtained by PCR from yeast genomic DNA). This gene encodes secreted yeast acid phosphatase (see Johnston & Carlson, in The Molecular and Cellular Biology of the Yeast Saccharomyce, (eds. Jones et al., CSHP, 1992) Vol. 2, Ch. 5). STE2 encodes the yeast α-factor receptor. The mutation in the […] reduces the background of acid phosphatase secreted by the yeast, though this mutation may not be necessary.
α-factor is the natural peptide agonist of the yeast α-factor receptor. The term "Growth selection" refers to growing the yeast in a defined medium (e.g., synthetic complete) (see Rose et al., Methods in Yeast Genetics: A Laboratory Course Manual (CSHLP, 1990)) lacking histidine and containing sufficient 3-aminotriazole to inhibit growth such that yeast only grow when the HIS3 gene product is expressed from the FUS1 promoter following stimulation of the STE2 receptor by α-factor. Lack of growth selection is achieved by leaving out the 3-aminotriazole and adding histdine.
Acid phosphatase activity in the yeast growth medium was quantitated using a […] assay with the substrate para-nitrophenyl phosphate (pNPP), measuring the appearance of yellow color (Payne et al., Gene 163, 19-26 (1995). When yeast were grown under various growth conditions (+/-saturating (500 nM) concentrations of α-factor, between 26% and 69% of the total acid phosphatase activity is secreted into the medium (Table 1).

For the substance α-factor, in data set [1] (24 hr growth of yeast in the wells, 0.5 µM), the “Increase in OD405 compared to wells lacking α-factor” value turned out to be 4 fold. Besides, the Well-marking activity in data set [1] (T = 0, 500 nM alpha factor) stood at 0.11 OD405 units/minute; in data set [1] (T = 0, 500 nM alpha factor, listed as alpha factor), 0.113 OD405 units/minute; in data set [1] (T = 24 Hrs, 500 nM alpha factor), 0.8 OD405 units/minute. In addition, the “Increase in acid phosphatase activity in the medium compared to absence of α-factor” value in data set [2] (500 nM α-factor, no growth selection, 24 hr) is listed as 16-20 fold; in data set [2] (with growth selection, 48 hours, 0.5 µM), 32-58 fold. For the same substance, the “% of total acid-phosphatase activity in medium” value in data set [2] (alpha-factor +, growth selection +) came out at 63%; in data set [2] (alpha-factor +, growth selection -) it was 69%. For the same substance, the “Acid phosphatase activity in the medium” value in data set [2] (24 hours, selection +, alpha-factor +, clone #1) was found to be 0.01279 OD405 units/minute; in data set [2] (24 hours, selection +, alpha-factor +, clone s3), 0.02892 OD405 units/minute; in data set [2] (24 hours, selection -, alpha-factor +, clone #1) it was 0.06481 OD405 units/minute; in data set [2] (24 hours, selection -, alpha-factor +, clone s3) it was 0.1001 OD405 units/minute; in data set [2] (48 hr, growth selection (+10 mM 3-aminotriazole), 500 nM alpha-factor, clone #1), 0.05768 OD405 units/minute; in data set [2] (48 hr, growth selection (+10 mM 3-aminotriazole), 500 nM alpha-factor, clone s3), 0.1062 OD405 units/minute. For the same substance, the Induction ratio in data set [2] (48 hr, clone #1) is 32.4; in data set [2] (48 hr, clone s3), 58.7.
